Data reported in paper PMC6281186, “Bioinformatics: A rational combine approach used for the identification and in-vitro activity evaluation of potent β-Glucuronidase inhibitors” (PLoS ONE, 2018).

Target: T1, β-glucuronidase enzyme (Escherichia coli, UniProt P05804)
T1 construct: purchased Sigma Aldrich G7396-25KU
Experiment: β-Glucuronidase inhibition assay (spectrophotometric, p-nitrophenyl-β-D-glucuronide)
Assay type: biochemical
Method: β-Glucuronidase inhibitory activity was determined with the help of spectrophotometric method by measuring the absorbance at 405 nm of p-nitrophenol formed from the substrate (p-nitrophenyl-β-D-glucuronide, N1627-250 mg, Sigma Aldrich). The total reaction volume was 250 μL. The compound dissolved in DMSO (100%), which becomes 2% in the ultimate assay (250 μL) and the similar conditions were used for standard (D-saccharic acid 1, 4-lactone, Sigma Aldrich). The reaction mixture contained 185 μL of 0.1 M acetate buffer, 5 μL of test compound solution, 10 μL of (1U) enzyme solution (G7396-25KU, Sigma Aldrich) was incubated at 37°C for 30 min. The plates were read on a multiplate reader (SpectraMax plus 384) at 405 nm after the addition of 50 μL of 0.4 mM p-nitrophenyl-β-D-glucuronide. All assays were performed in triplicate. IC50values were calculated by using EZ-Fit software (Perrella Scientific Inc., Amherst, MA, U.S.A.). These values are the mean of three independent readings^ [23]

T1 sequence (P05804 whole entry): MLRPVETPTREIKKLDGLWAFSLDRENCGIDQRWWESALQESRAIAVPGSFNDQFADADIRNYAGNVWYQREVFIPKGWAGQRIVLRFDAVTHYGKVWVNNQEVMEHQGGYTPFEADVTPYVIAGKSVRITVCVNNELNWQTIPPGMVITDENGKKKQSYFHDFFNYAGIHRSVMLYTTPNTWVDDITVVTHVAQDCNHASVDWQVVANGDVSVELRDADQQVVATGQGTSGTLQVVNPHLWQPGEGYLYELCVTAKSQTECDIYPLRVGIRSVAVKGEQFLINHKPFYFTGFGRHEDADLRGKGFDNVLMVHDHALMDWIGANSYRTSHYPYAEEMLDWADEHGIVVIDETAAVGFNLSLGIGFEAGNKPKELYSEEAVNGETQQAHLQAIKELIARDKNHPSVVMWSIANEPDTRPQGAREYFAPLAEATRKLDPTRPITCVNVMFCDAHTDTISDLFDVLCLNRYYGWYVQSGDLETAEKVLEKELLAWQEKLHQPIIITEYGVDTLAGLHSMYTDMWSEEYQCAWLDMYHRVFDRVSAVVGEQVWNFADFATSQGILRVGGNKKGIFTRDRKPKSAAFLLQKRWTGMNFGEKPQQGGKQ

SMILES: O=C1OC(C(O)C(=O)O)C(O)C1O [D-saccharic acid 1,4-lactone]
- % Inhibition (Conc. 200 μM): 89.4%
- IC50 (β-glucuronidase inhibition, mean of three readings, read-out: IC50 μM±SEM): 45.8 ± 2.16 µM
